#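 GI50 is the concentration that inhibits growth by half. At the TGI there is no net growth.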
# Columns and labels:
# Assay in all cases: inhibition of tumour cell growth, NCI panel, 384-well format
# [1] = tested on: 786-0 renal
# [2] = tested on: A498 renal
# [3] = tested on: A549 NSCLC
# [4] = tested on: ACHN renal
# [5] = tested on: BT-549 breast
# [6] = tested on: CAKI-1 renal
# [7] = tested on: CCRF-CEM leukemia
# [8] = tested on: COLO 205 colon
# [9] = tested on: DU-145 prostate
# [10] = tested on: EKVX NSCLC
# [11] = tested on: HCC-2998 colon
# [12] = tested on: HCT-116 colon
# [13] = tested on: HCT-15 colon
# [14] = tested on: HL-60(TB) leukemia
# [15] = tested on: HOP-62 NSCLC
# [16] = tested on: HOP-92 NSCLC
# [17] = tested on: HS 578T breast
# [18] = tested on: HT29 colon
# [19] = tested on: IGROV1 ovarian
# [20] = tested on: K-562 leukemia
# [21] = tested on: KM12 colon
# [22] = tested on: LOX IMVI melanoma
# [23] = tested on: M14 melanoma
# [24] = tested on: MALME-3M melanoma
# [25] = tested on: MCF7 breast
# [26] = tested on: MDA-MB-231 breast
# [27] = tested on: MDA-MB-435 melanoma
# [28] = tested on: MDA-MB-468 breast
# [29] = tested on: MOLT-4 leukemia
# [30] = tested on: NCI-H226 lung
# [31] = tested on: NCI-H23 lung
# [32] = tested on: NCI-H322M lung
# [33] = tested on: NCI-H460 NSCLC
# [34] = tested on: NCI-H522 lung
# [35] = tested on: NCI/ADR-RES ovarian
# [36] = tested on: OVCAR-3 ovarian
# [37] = tested on: OVCAR-4 ovarian
# [38] = tested on: OVCAR-5 ovarian
# [39] = tested on: OVCAR-8 ovarian
# [40] = tested on: PC-3 prostate
# [41] = tested on: RPMI-8226 leukemia
# [42] = tested on: RXF 393 renal
# [43] = tested on: SF-268 CNS
# [44] = tested on: SF-295 CNS
# [45] = tested on: SF-539 CNS
# [46] = tested on: SK-MEL-2 melanoma
# [47] = tested on: SK-MEL-28 melanoma
# [48] = tested on: SK-MEL-5 melanoma
# [49] = tested on: SK-OV-3 ovarian
# [50] = tested on: SN12C renal
# [51] = tested on: SNB-19 CNS
# [52] = tested on: SNB-75 CNS
# [53] = tested on: SR leukemia
# [54] = tested on: SW-620 colon
# [55] = tested on: T-47D breast
# [56] = tested on: TK-10 renal
# [57] = tested on: U251 glioblastoma
# [58] = tested on: UACC-257 melanoma
# [59] = tested on: UACC-62 melanoma
smiles,measurement,setting,value
C[C@@H]1CCN(C(=O)CC#N)C[C@@H]1N(C)c1ncnc2[nH]ccc12,GI50,[1],> 100 µM
same,TGI,[1],> 100 µM
same,GI50,[2],> 100 µM
same,TGI,[2],> 100 µM
same,GI50,[3],> 100 µM
same,TGI,[3],> 100 µM
same,GI50,[4],> 100 µM
same,TGI,[4],> 100 µM
same,GI50,[5],> 100 µM
same,TGI,[5],> 100 µM
same,GI50,[6],> 100 µM
same,TGI,[6],> 100 µM
same,GI50,[7],> 100 µM
same,TGI,[7],> 100 µM
same,GI50,[8],> 100 µM
same,TGI,[8],> 100 µM
same,GI50,[9],> 100 µM
same,TGI,[9],> 100 µM
same,GI50,[10],> 100 µM
same,TGI,[10],> 100 µM
same,GI50,[11],> 100 µM
same,TGI,[11],> 100 µM
same,GI50,[12],> 100 µM
same,TGI,[12],> 100 µM
same,GI50,[13],> 100 µM
same,TGI,[13],> 100 µM
same,GI50,[14],> 100 µM
same,TGI,[14],> 100 µM
same,GI50,[15],> 100 µM
same,TGI,[15],> 100 µM
same,GI50,[16],> 100 µM
same,TGI,[16],> 100 µM
same,GI50,[17],> 100 µM
same,TGI,[17],> 100 µM
same,GI50,[18],> 100 µM
same,TGI,[18],> 100 µM
same,GI50,[19],> 79.9 µM
same,TGI,[19],> 100 µM
same,GI50,[20],> 100 µM
same,TGI,[20],> 100 µM
same,GI50,[21],> 100 µM
same,TGI,[21],> 100 µM
same,GI50,[22],> 100 µM
same,TGI,[22],> 100 µM
same,GI50,[23],> 100 µM
same,TGI,[23],> 100 µM
same,GI50,[24],> 100 µM
same,TGI,[24],> 100 µM
same,GI50,[25],> 100 µM
same,TGI,[25],> 100 µM
same,GI50,[26],62.5 µM
same,TGI,[26],> 100 µM
same,GI50,[27],> 100 µM
same,TGI,[27],> 100 µM
same,GI50,[28],> 100 µM
same,TGI,[28],> 100 µM
same,GI50,[29],> 100 µM
same,TGI,[29],> 100 µM
same,GI50,[30],> 42.6 µM
same,TGI,[30],> 85.5 µM
same,GI50,[31],> 100 µM
same,TGI,[31],> 100 µM
same,GI50,[32],> 100 µM
same,TGI,[32],> 100 µM
same,GI50,[33],> 100 µM
same,TGI,[33],> 100 µM
same,GI50,[34],> 83.7 µM
same,TGI,[34],> 100 µM
same,GI50,[35],> 100 µM
same,TGI,[35],> 100 µM
same,GI50,[36],> 100 µM
same,TGI,[36],> 100 µM
same,GI50,[37],> 100 µM
same,TGI,[37],> 100 µM
same,GI50,[38],62 µM
same,TGI,[38],> 100 µM
same,GI50,[39],> 100 µM
same,TGI,[39],> 100 µM
same,GI50,[40],> 100 µM
same,TGI,[40],> 100 µM
same,GI50,[41],> 100 µM
same,TGI,[41],> 100 µM
same,GI50,[42],> 80.4 µM
same,TGI,[42],> 100 µM
same,GI50,[43],99.8 µM
same,TGI,[43],> 100 µM
same,GI50,[44],> 100 µM
same,TGI,[44],> 100 µM
same,GI50,[45],> 100 µM
same,TGI,[45],> 100 µM
same,GI50,[46],> 100 µM
same,TGI,[46],> 100 µM
same,GI50,[47],> 100 µM
same,TGI,[47],> 100 µM
same,GI50,[48],> 100 µM
same,TGI,[48],> 100 µM
same,GI50,[49],> 58 µM
same,TGI,[49],> 100 µM
same,GI50,[50],> 94 µM
same,TGI,[50],> 100 µM
same,GI50,[51],> 100 µM
same,TGI,[51],> 100 µM
same,GI50,[52],61.5 µM
same,TGI,[52],> 100 µM
same,GI50,[53],> 100 µM
same,TGI,[53],> 100 µM
same,GI50,[54],> 100 µM
same,TGI,[54],> 100 µM
same,GI50,[55],> 100 µM
same,TGI,[55],> 100 µM
same,GI50,[56],> 71.4 µM
same,TGI,[56],> 100 µM
same,GI50,[57],> 100 µM
same,TGI,[57],> 100 µM
same,GI50,[58],> 100 µM
same,TGI,[58],> 100 µM
same,GI50,[59],> 100 µM
same,TGI,[59],> 100 µM

# Source: PubChem BioAssay (NCI)
